# Data from patent US11559057B2, “Insecticidal mixtures of bifenthrin and chlorantraniliprole” (FMC CORPORATION, priority 2019, dated 2023).
# Key:
# Format in all cases: in vivo
# [1] = test system: H. armigera 3rd instar; experiment: Example 5B ratio study, treated leaf bioassay, mortality and Colby synergy (protocol B)
# Procedure: (§1) Ratios of bifenthrin to chlorantraniliprole were evaluated on various crops and target pests as indicated in the protocol disclosed Table 5A below where “Lab.” Refers to laboratory, “No. of Treat.” refers to number of treatments, and Total refers to the total number of insects tested. In each evaluation, foliar application was done, the insecticide action was contact/ingestion and 32 insects were evaluated in each treatment.
# (§2) The treatment schedule shown in Table 5B was used where “dose” refers to application rate, “ratio” refers to the ratio of bifenthrin to chlorantraniliprole on an a.i. basis.
# (§3) Treatments were applied inside a sprayer chamber simulating a volume of 200 l/ha over soybean plants. After a drying period, treated leaves were removed from the plants and placed inside 16 well trays containing agar solution (2%) covered with filter paper. Two 16 well trays were prepared for each treatment (32 larvae/treatment). One 3rd instar larva from laboratory strains was placed in each well over the treated leaf. Trays were kept under controlled conditions of 25° C., photoperiod of 14:10 hours, and 60% RH. Morality was evaluated after 96 hours. Mortality is defined as dead and moribund larvae.
# (§4) Synergy or antagonism was determined using the Colby Equation where: E=X+(100−X)(Y)/100)=X+Y−X*Y/100. X is the observed result for compound A at p grams a.e./ha. Y is the observed result for compound B at q grams a.e./ha. E is the expected result for a mixture of A and B at (p+q) g a.i./ha if there is no synergy or antagonism. If the observed value for the combination of A and B is greater than E (Obs>E) then synergy is indicated. If the observed value for the combination of A and B is less than E (Obs<E) then antagonism is indicated.
# Morality on H. armigera was evaluated according to protocol B (refer to Table 5B) using treatment numbers 5.1 to 5.13 (refer to Table 5B).
# [2] = test system: S. frugiperda laboratory strain (susceptible); experiment: Example 5C ratio study, mortality and Colby synergy, laboratory strain (protocol G); conditions: Spodoptera frugiperda, 96 hours
# Procedure: as §1, §2, §3, §4
# (§5) Morality on S. frugiperda was evaluated according to protocols G and H (refer to Table 5B), but where two S. frugiperda strains were tested: a laboratory strain (susceptible) and a field strain in F3 generation sampled in the 2018/2019 season in Sinop-MT region using treatment numbers 5.1 to 5.10 (refer to Table 5B). The results are reported in Tables 5E (Laboratory Strain) and 5F (Filed Strain).
# [3] = test system: S. frugiperda field strain; experiment: Example 5C ratio study, mortality and Colby synergy, field strain (protocol H)
# Procedure: as §1, §2, §3, §4, §5
# [4] = test system: C. includens 3rd instar; experiment: Example 5A ratio study, treated leaf bioassay, mortality and Colby synergy (protocol A); conditions: at 7.5 g a.i./ha
# Procedure: as §1, §2
# Treatments were applied inside a sprayer chamber simulating a volume of 200 l/ha over soybean plants. After a drying period, treated leaves were removed from the plants and placed inside 16 well trays containing agar solution (2%) covered with filter paper. […] Morality was evaluated after 96 hours. […]
# Synergy or antagonism was determined using the Colby Equation where: E=X+(100−X)(Y)/100)=X+Y−X*Y/100. […]
# Morality on C. includens was evaluated according to protocol A (refer to Table 5B) using treatment numbers 5.1, 5.3, 5.5 to 5.8 and 5.10 to 5.13 (refer to Table 5B). The results are reported in Table 5C below where mortality is the mean mortality, the E value was calculated by the Colby equation, and the synergy value is determined by dividing the mean mortality (%) by the expected value (E).
# [5] = test system: E. heros 3rd instar nymphs; experiment: Example 5D ratio study on soybean plants, mortality and Colby synergy, nymphs (protocol C); conditions: statement for E. heros (nymphs and adults, protocols C and D)
# Procedure: as §1, §2, §4
# (§6) Morality on E. heros was evaluated according to protocols C and D (refer to Table 5B). […] Mortality was evaluated after 72 hours. […]
# [6] = test system: D. melachantus 3rd instar nymphs; experiment: Example 5E ratio study, mortality and Colby synergy, nymphs (protocol E); conditions: statement for D. melacanthus (nymphs and adults, protocols E and F)
# Procedure: as §1, §2, §4, §6
# Morality on D. melachantus was evaluated according to protocols E and F (refer to Table 5B). […]
compound,measurement,setting,value
"Cc1c(COC(=O)[C@@H]2[C@H](/C=C(\Cl)C(F)(F)F)C2(C)C)cccc1-c1ccccc1 (racemic) [Bifenthrin, 2-methylbiphenyl-3-ylmethyl (Z)-(1RS)-cis-3-(2-chloro-3,3,3-trifluoroprop-1-enyl)-2,2-dimethyl cyclopropanecarboxylate]",mortality at 10 g/ha,"[1]; Helicoverpa armigera, Bifenthrin 10 g a.i./ha, 96 hours",0%
same,mortality at 15 g/ha,"[1]; Helicoverpa armigera, Bifenthrin 15 g a.i./ha, 96 hours",0%
same,mortality at 30 g/ha,"[1]; Helicoverpa armigera, Bifenthrin 30 g a.i./ha, 96 hours",0%
same,mortality at 45 g/ha,"[1]; Helicoverpa armigera, Bifenthrin 45 g a.i./ha, 96 hours",0%
same,mortality at 60 g/ha,"[1]; Helicoverpa armigera, Bifenthrin 60 g a.i./ha, 96 hours",9.4%
same,control of H. armigera,"[1]; even at a higher dose of 60 g a.i./ha, H. armigera resistance to pyrethroids",lower control
same,mortality at 10 g/ha,[2]; Bifenthrin 10 g a.i./ha,34.4%
same,mortality at 15 g/ha,[2]; Bifenthrin 15 g a.i./ha,53.1%
same,mortality at 30 g/ha,[2]; Bifenthrin 30 g a.i./ha,78.1%
same,mortality at 45 g/ha,[2]; Bifenthrin 45 g a.i./ha,96.9%
same,mortality at 60 g/ha,[2]; Bifenthrin 60 g a.i./ha,93.8%
same,mortality at 10 g/ha,"[3]; Spodoptera frugiperda, Bifenthrin 10 g a.i./ha, 96 hours",3.1%
same,mortality at 15 g/ha,"[3]; Spodoptera frugiperda, Bifenthrin 15 g a.i./ha, 96 hours",3.1%
same,mortality at 30 g/ha,"[3]; Spodoptera frugiperda, Bifenthrin 30 g a.i./ha, 96 hours",15.6%
same,mortality at 45 g/ha,"[3]; Spodoptera frugiperda, Bifenthrin 45 g a.i./ha, 96 hours",43.8%
same,mortality at 60 g/ha,"[3]; Spodoptera frugiperda, Bifenthrin 60 g a.i./ha, 96 hours",43.8%
same,control of S. frugiperda,"[3]; lower doses of bifenthrin, especially on the field strain",lower control
"CNC(=O)c1cc(Cl)cc(C)c1NC(=O)c1cc(Br)nn1-c1ncccc1Cl [Chlorantraniliprole, 5-bromo-N-[4-chloro-2-methyl-6-(methylcarbamoyl)phenyl]-2-(3-chloropyridin-2-yl)pyrazole-3-carboxamide]",control of C. includens,[4],most effective
same,mortality at 5 g/ha,"[1]; Helicoverpa armigera, Chlorantraniliprole 5 g a.i./ha, 96 hours",84.4%
same,mortality at 7.5 g/ha,"[1]; Helicoverpa armigera, Chlorantraniliprole 7.5 g a.i./ha, 96 hours",100%
same,H. armigera control,[1]; at 7.5 g a.i./ha,most effective
same,mortality at 5 g/ha,[2]; Chlorantraniliprole 5 g a.i./ha,96.9%
same,mortality at 7.5 g/ha,[2]; Chlorantraniliprole 7.5 g a.i./ha,100%
same,mortality at 5 g/ha,"[3]; Spodoptera frugiperda, Chlorantraniliprole 5 g a.i./ha, 96 hours",40.6%
same,mortality at 7.5 g/ha,"[3]; Spodoptera frugiperda, Chlorantraniliprole 7.5 g a.i./ha, 96 hours",59.4%
same,control of E. heros,[5],did not control
same,control of D. melacanthus,[6],did not control
